Entries after “also recorded” stand apart in the source; their conditions may differ.
Assays:
[1] = system: mammary epithelial cell; assay: Mammary epithelial cell (MEC) proliferation in intact and ovariectomized rats by 2H2O labeling, GC/MS; format: in vivo, Sprague-Dawley rats; details: for MEC proliferation: all doses, treated and labeled for 7 days, in the presence or absence of estrogen; for MEC proliferation rates: even the lowest dose; for mammary epithelial cell proliferation: intact female rats and ovariectomized rats, very low doses
[2] = Tolerability of maintained 2H2O body water enrichment; format: in vivo, humans; details: 1-10% of body water labeled, weeks or months; >100 people; rapid changes in enrichment prevented
Excerpt: Relatively high body water enrichments of ^2H2O (e.g., 1-10% of the total body water is labeled) may be achieved relatively inexpensively using the techniques of the invention. This water enrichment is relatively constant and stable as these levels are maintained for weeks or months in humans and in experimental animals without any evidence of toxicity. This finding in a large number of human subjects (>100 people) is contrary to previous concerns about vestibular toxicities at high doses of ^2H2O. The Applicant has discovered that as long as rapid changes in body water enrichment are prevented (e.g., by initial administration in small, divided doses), high body water enrichments of ^2H2O can be maintained with no toxicities. For example, the low cost of commercially available ^2H2O allows long-term maintenance of enrichments in the 1-5% range at relatively low expense (e.g., calculations reveal a lower cost for 2 months labeling at 2% ^2H2O enrichment, and thus 7-8% enrichment in the alanine precursor pool, than for 12 hours labeling of ^2H-leucine at 10% free leucine enrichment, and thus 7-8% enrichment in leucine precursor pool for that period).

[3] = Food intake and body weight of mice on 2H2O; format: in vivo; details: 0.012 ml/gm injection then 4% 2H2O in drinking water
Protocol: Mice were injected with ^2H2O (deuterated water) 0.012 ml/gm. […] Twenty-one days following the start of ^2H2O administration, mice were fasted for four hours, anesthetized with isoflurane and exsanguinated via heart puncture.

[4] = Plasma liver enzymes in mice given griseofulvin; format: in vivo; details: 1% dose; data not shown
[5] = system: liver cell; assay: Liver cell proliferation in mice during griseofulvin administration (2H2O labeling); format: in vivo; details: 1% griseofulvin in chow (low dose, NOEL), 5 days
Protocol: Cell proliferation was measured as described, supra.

[6] = system: neurons; assay: Neuron turnover (fractional replacement) in mice by 2H2O labeling and GC/MS of DNA from isolated neurons; format: in vivo
Protocol: Groups of mice (n=5/group) were given a bolus of ^2H2O (Spectra Isotopes, Columbia, Md.) to 5% ^2H2O in body water and were given 8% ^2H2O as drinking water. Mice were maintained on ^2H2O for 45 days, during which period they also received injections every other day of either lipopolysaccharide (LPS) (Sigma, St. Louis, Mo.) in saline at a dose of 1 or 4 mg/kg body weight, or no injection.
Mice were euthanized with carbon dioxide, and their brains were removed. Hippocampi were dissected out, trypsinized, and stained with tetanus toxoid (Ttx), a specific marker for neurons, and then stained with a FITC labeled anti-Ttx antibody (Roche, Basel Switzerland). […]

[7] = system: neuroprogenitor cells; details: chronic exposure to LPS; Ekdahl et al. 2003; cited from earlier work
[8] = system: adipocytes; assay: Adipocyte proliferation in ob/ob mice by 2H2O labeling of adipose cell DNA; format: in vivo; details: murine leptin 2 μg/day s.c. osmotic pump, 21 days 2H2O
Excerpt: Four week old, female, C57/bl6j mice (Jackson Labs Bar Harbor, […].) were studied: C57/bl6j ^+/? controls (con), ad libitum fed C57/bl6j^lep-/lep- (ob/ob), leptin treated ob/ob (ob-lep) and food restricted ob/ob (ob-r). Mice were housed individually in hanging wire cages and fed AIN 93 purified diets (Bio Serv, Frenchtown, N.J.). Mice were given 3 days to acclimate to the environment, after which mice grew normally. All treatments and interventions began 5 days prior to the start of labeling with ^2H2O.
Ob-lep mice received murine leptin subcutaneously at a dose of 2 μg/day (Amgen, Thousand Oaks Calif.) via a 28 day Alzet mini osmotic pump (Alza Corp. Palo Alto Calif.).
Mice were injected with ^2H2O (deuterated water) 0.012 ml/gm. […]
The frozen slurry of adipocytes was lyophilized, the dry weight of the sample was determined and then the samples were digested and DNA isolated as described elsewhere (Neese, R. A. et al. Advances in the Stable Isotope-Mass Spectrometric Measurement of DNA Synthesis and Cell Proliferation. Anal Biochem 298, 189-195. (2001)) using Quiagen DNeasy tissue kits. The yield of DNA from each sample was determined with a Pharmacia Biotec Genequant II spectrophotometer. […]
PTA samples were analyzed for incorporation of deuterium on a HP model 5973 MS with a 6890 GC and auto-sampler (Agilent, Palo Alto, Calif.). […]

O=C(c1ccc(OCCN2CCCCC2)cc1)c1c(-c2ccc(O)cc2)sc2cc(O)ccc12 [raloxifene]
MEC proliferation [1]: Significant reductions of MEC proliferation | MEC proliferation rates [1]: efficacious anti-proliferative agents | mammary epithelial cell proliferation [1]: decrease in mammary epithelial cell proliferation

[2H]O[2H] [^2H2O, deuterated water]
toxicity of maintained body water enrichment [2]: no toxicities | food intake or body weight [3]: no impact on food intake or body weight

CC/C(=C(\c1ccccc1)c1ccc(OCCN(C)C)cc1)c1ccccc1 [tamoxifen]
MEC proliferation [1]: Significant reductions of MEC proliferation | MEC proliferation rates [1]: efficacious anti-proliferative agents | mammary epithelial cell proliferation [1]: decrease in mammary epithelial cell proliferation

COC1=CC(=O)C[C@@H](C)[C@]12Oc1c(Cl)c(OC)cc(OC)c1C2=O [griseofulvin]
plasma liver enzymes [4]: did not induce elevated levels of plasma liver enzymes | liver cell proliferation [5]: increased liver cell proliferation

lipopolysaccharide [LPS]
neuron turnover (fractional replacement of neurons) ([6]; LPS 1 or 4 mg/kg injected every other day, 45 days with 2H2O, vs control, p<0.05, dose dependent): statistically significant increase in neuron turnover; also recorded: turnover more rapidly | calculated fractional synthesis rate (f) of new neurons ([6]; after exposure to LPS, control approximately 7%): ~14% | neurogenesis [7]: neurogenesis was observed to decrease

B1: leptin: murine leptin (Amgen) given subcutaneously via osmotic pump (protein, UniProt P41160 22-167, looked up)
Leptin: VPIQKVQDDTKTLIKTIVTRINDISHTQSVSAKQRVTGLDFIPGLHPILSLSKMDQTLAVYQQVLTSLPSQNVLQIANDLENLRDLLHLLAFSKSCSLPQTSGLQKPESLDGVLEASLYSTEVVALSRLQGSLQDILQQLDVSPEC
adipocyte proliferation (fat cell proliferation) [8]: decrease in adipocyte proliferation

Reference: patent US8663602B2, “Method for high-throughput screening of compounds and combinations of compounds for discovery and quantification of actions, particularly unanticipated therapeutic or toxic actions, in biological systems” (The Regents of the University of California, priority 2003, dated 2014)
